Results taken from patent US20230000869A1, “NOVEL ALK2 INHIBITORS AND METHODS FOR INHIBITING BMP SIGNALING” (The Brigham and Women's Hospital, Inc., priority 2017, published 2023).
Structures can show the parent of a compound that is named as a salt.

Assays:
TGFβ = test: Luciferase reporter gene assay for TGFβ activity (HEK293T SBE-Luc SMAD2/3 reporter, TGFβ agonist); type: cell-based; conditions: Homo sapiens, HEK-293T, TGFβ 5 ng/mL
Procedure: (§1) All cell lines were cultured in DMEM, supplemented with […] and 1% Pen/Strep. All media reagents were obtained from Gibco. BMP6, BMP9, and TGFβ were obtained from R&D Systems. C2C12-BRE and HEK293T-SBE were kept in selection with 400 ug/mL G418 from Invivogen.
(§2) In this reporter gene cell based ALK2 and TGFβ assay, the C2C12 cell line was employed for the measurement of ALK2 activity, using a BRE-Luc SMAD1/5/8 reporter and BMP6 as the agonist. The HEK293T cell line was employed to measure TGFβ activity, using a SBE-Luc SMAD2/3 reporter and TGFβ as the agonist. Luciferase reporter assays were read using Promega Steady-Glo Luciferase Assay System.
(§3) Cells were plated in 96 well white clear bottom assay plates at 10 k cells/well for C2C12-BRE, 15 k cells/well for HEK293-SBE in DMEM containing 2% FBS 1% P/S. Cells were given a minimum of 4 hours in incubator at 37° C./5% CO2 to adhere prior to further treatment. Compounds were diluted in DMSO to a 10-point dilution curve and added to the plate to reach the following final concentrations: 10000, 3000, 1000, 300, 100, and 30 nM in the HEK293-SBE assay and 1000, 300, 100, 30, 10, 3, 1, 0.3 nM in the C2C12-BRE assay. Negative and positive control wells received 2 μL DMSO as vehicle treatment. Plates were returned to incubator for 45 minutes and then BMP6 and TGFB were added to a final concentration of 50 ng/mL and 5 ng/mL, respectively. Plates were returned to the incubator and left overnight. After a minimum of 18 hours post BMP6/TGFβ addition, the plates were read using Promega Steady-Glo Luciferase Assay System. A 1:1 mixture of prepared steady-glo and phenol free DMEM was prepared, and 50 μL/well was added to the assay plates whose media had been flicked off. Plates were given 10 minutes post steady-glo addition before luminescence was read on a Spectramax M5e microplate reader. Negative control wells were averaged and subtracted from all other wells on the plate. Inhibition was calculated as the percent of signal loss compared to the averaged positive control wells.

ALK2 = target: T1, ALK2 (Mus musculus, UniProt P37172); test: Luciferase reporter gene assay for ALK2 activity (C2C12 BRE-Luc SMAD1/5/8 reporter, BMP6 agonist); type: cell-based; conditions: BMP6 50 ng/mL
T1 construct: endogenous in cells; host or cells: C2C12-BRE (BRE-Luc reporter line, G418 selection)
T1 sequence (P37172 21-509): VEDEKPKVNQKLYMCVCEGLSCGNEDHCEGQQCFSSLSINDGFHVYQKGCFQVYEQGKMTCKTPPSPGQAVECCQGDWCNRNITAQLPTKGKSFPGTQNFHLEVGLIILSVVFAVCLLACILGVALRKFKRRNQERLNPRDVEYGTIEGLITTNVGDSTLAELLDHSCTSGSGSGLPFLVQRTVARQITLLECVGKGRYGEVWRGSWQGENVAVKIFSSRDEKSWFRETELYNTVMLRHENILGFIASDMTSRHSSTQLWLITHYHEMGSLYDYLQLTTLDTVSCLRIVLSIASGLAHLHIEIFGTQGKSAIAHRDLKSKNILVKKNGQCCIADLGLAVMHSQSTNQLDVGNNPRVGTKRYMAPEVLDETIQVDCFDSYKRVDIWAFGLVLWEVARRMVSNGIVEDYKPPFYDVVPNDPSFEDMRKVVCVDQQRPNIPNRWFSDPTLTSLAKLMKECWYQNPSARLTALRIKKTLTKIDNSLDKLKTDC
Procedure: as §1, §2, §3

| Structure (SMILES) | IC50 (TGFβ) | IC50 (ALK2) |
| --- | --- | --- |
| Cc1cc(-c2cnn3cc(N4CCN(C5CCOCC5)CC4)cnc23)c2ccccc2n1 [Compound 22] | 86 nM | 261 nM |
| CN1CCN(C2CCN(c3cnc4c(-c5cccc(S(C)(=O)=O)c5)cnn4c3)CC2)CC1 [Compound 63] | 6830 nM | 977 nM |
| Cc1cc(-c2cnn3cc(N4CC(N5CCOCC5)C4)cnc23)c2ccccc2n1 [Compound 194] | 138 nM | 221 nM |
| COc1cc2c(-c3cnn4cc(N5CCC(N6CCS(=O)(=O)CC6)CC5)cnc34)ccnc2cc1F [Compound 46] | 454 nM | 108 nM |
| COc1cc2c(-c3cnn4cc(N5CCC(N6C[C@@H]7C[C@H]6CN7C)CC5)cnc34)ccnc2cc1F [Compound 215] | 142 nM | 34 nM |
| Cc1cc2nccc(-c3cnn4cc(N5CCC(N6CCN(C)CC6)CC5)cnc34)c2s1 [Compound 226] | > 1000 nM | 18 nM |
| COc1cc2c(-c3cnn4cc(N5CCC6(CCN(C)CC6)CC5)cnc34)ccnc2cc1F [Compound 217] | 116 nM | 33 nM |
| COc1cc(-c2cnn3cc(N4CCC(N5CCN(C)CC5)CC4)cnc23)ccn1 [Compound 272] | > 1000 nM | 153 nM |
| COc1ccc2nccc(-c3cnn4cc(N5CCC(N6CCOCC6)CC5)cnc34)c2c1 [Compound 30] | 120 nM | 37 nM |
| CN1CCN(C2CCN(c3cnc4c(-c5ccnc6cc(OC(F)(F)F)ccc56)cnn4c3)CC2)CC1 [Compound 262] | > 3000 nM | > 1000 nM |
| COc1cc2c(-c3cnn4cc(N5CC6(CN(C)C6)C5)cnc34)ccnc2cc1F [Compound 282] | 96 nM | 10 nM |
| Cc1cccc2c(-c3cnn4cc(N5CCC(N6CCN(C)CC6)CC5)cnc34)ccnc12 [Compound 270] | > 3000 nM | 558 nM |
| Cc1cc2nccc(-c3cnn4cc(N5CCC(N6CCN(C)CC6)CC5)cnc34)c2cc1C [Compound 233] | 589 nM | 70 nM |
| Cc1cc(-c2cnn3cc(N4CCN(C5CCNCC5)CC4)cnc23)c2ccccc2n1 [Compound 23] | 88 nM | 145 nM |
| CN1CCN(C2CCN(c3cnc4c(-c5ccnc6ccc(Cl)c(F)c56)cnn4c3)CC2)CC1 [Compound 267] | > 2000 nM | 162 nM |
| COc1cc2c(-c3cnn4cc(N5CCC(N6CCN(C)CC6)CC5)cnc34)ccnc2cc1C [Compound 29] | 384 nM | 83 nM |
| COc1cc2c(-c3cnn4cc(N5CCC(N6CCN(C)CC6)CC5)cnc34)ccnc2cc1O [Compound 239] | > 1000 nM | 32 nM |
| CN1CCN(C2CCN(c3cc(OC4CCOCC4)c4c(-c5cn[nH]c5)cnn4c3)CC2)CC1 [Compound 225] | > 3000 nM | > 1000 nM |
| Cc1cc(-c2cnn3cc(N4CCN(CCN5CCOCC5)CC4)cnc23)c2ccccc2n1 [Compound 19] | 64 nM | 113 nM |
| CN1CCN(C2CCN(c3cnc4c(-c5ccnc6c(F)cccc56)cnn4c3)CC2)CC1 [Compound 260] | 229 nM | 12 nM |
| CN1CCN(C2CCN(c3cnc4c(-c5cn[nH]c5)cnn4c3)CC2)CC1 [Compound 14] | > 3000 nM | 186 nM |
| COc1cc2c(-c3cnn4cc(N5CCC(N6CCN(C)CC6)CC5)cnc34)cc(=O)[nH]c2cc1F [Compound 220] | > 1000 nM | > 1000 nM |
| Cc1cc(-c2cnn3cc(N4CCC(N5CCN(C)CC5)CC4)cnc23)c2ccc(F)cc2n1 [Compound 255] | 28 nM | 68 nM |
| COc1cc(-c2cnn3cc(N4CC(N5CCN(C)CC5)C4)cnc23)cc(OC)c1OC [Compound 309] | 335 nM | 28 nM |
| CN1CCN(C2CCN(c3cnc4c(-c5ccnc6ccc(C(F)(F)F)cc56)cnn4c3)CC2)CC1 [Compound 235] | > 1000 nM | 25 nM |
| Cc1cc(-c2cnn3cc(N4CCC(N(C)C)CC4)cnc23)c2ccccc2n1 [Compound 189] | 92 nM | 137 nM |
| Cc1cc2c(-c3cnn4cc(N5CC(N6CCOCC6)C5)cnc34)ccnc2cc1F [Example 301] | < 20 nM | 18 nM |
| CN1CCN(C2CCN(c3cnc4c(-c5ccnc6ccsc56)cnn4c3)CC2)CC1 [Compound 248] | 2880 nM | 57 nM |

Now from value to compound:

| IC50 (TGFβ) | IC50 (ALK2) | Structure (SMILES) |
| --- | --- | --- |
| 271 nM | 681 nM | COc1cc2nccc(-c3cnn4cc(N5CCC(N6CCN(C)CC6)CC5)cnc34)c2cc1OC [Compound 17] |
| > 3000 nM | > 1000 nM | COc1cc2c(-c3cnn4cc(N5CCC(N6CCN(C)CC6=O)CC5)cnc34)ccnc2cc1F [Compound 329] |
| < 1 nM | < 1 nM | CS(=O)(=O)c1cccc(-c2cnn3cc(N4CCN(C5CCNCC5)CC4)cnc23)c1 [Compound 213, 3-(3-(methylsulfonyl)phenyl)-6-(4-(piperidin-4-yl)piperazin-1-yl)pyrazolo[1,5-a]pyrimidine trihydrochloride] |
| 328 nM | 30 nM | CN1CCN(C2CCN(c3cnc4c(-c5ccnc6cc(Cl)ccc56)cnn4c3)CC2)CC1 [Compound 244] |
| > 3000 nM | > 3000 nM | COc1ccc2ncc(F)c(-c3cnn4cc(N5CCC(N6CCN(C)CC6)CC5)cnc34)c2c1 [Compound 271] |
| > 1000 nM | > 1000 nM | CN1CCN(C2CCN(c3cnc4c(-c5ccnc(N)c5)cnn4c3)CC2)CC1 [Compound 249] |
| 1230 nM | 236 nM | COc1cc2c(-c3cnn4cc(N5CCC(N6CCN(C)C(C)C6)CC5)cnc34)ccnc2cc1F (centres unmarked) [Compound 41] |
| 141 nM | 26 nM | COc1cc2c(-c3cnn4cc(N5C[C@H]6CN(C)C[C@H]6C5)cnc34)ccnc2cc1F [Compound 218] |
| 483 nM | 76 nM | COc1cc2c(-c3cnn4cc(N5CCC(N6CCN(C)CC6)C(F)C5)cnc34)ccnc2cc1F (centres unmarked) [Compound 47] |
| < 1 nM | 3 nM | Cc1cc(-c2cnn3cc(N4CC5(CN(C)C5)C4)cnc23)c2ccccc2n1 [Example 298] |
| 324 nM | 94 nM | COc1cc2c(-c3cnn4cc(N5CCN(CC(C)(C)O)CC5)cnc34)ccnc2cc1F [Compound 200] |
| > 3000 nM | 311 nM | CN1CCN(C2CCN(c3cnc4c(-c5ccnc6cn[nH]c56)cnn4c3)CC2)CC1 [Compound 269] |
| > 3000 nM | > 3000 nM | NC(=O)c1cccc2c(-c3cnn4cc(N5CCN(C6CCNCC6)CC5)cnc34)cccc12 [Compound 4] |
| 69 nM | 11 nM | COc1cc2c(-c3cnn4cc(N5CCC(N6CCNCC6)CC5)cnc34)ccnc2cc1F [Compound 39, 7-fluoro-6-methoxy-4-[6-(4-piperazin-1-yl-1-piperidyl)pyrazolo[1,5-a]pyrimidin-3-yl]quinoline] |
| 916 nM | 19 nM | CN1CCN(C2CCN(c3cnc4c(-c5ccnc6ncccc56)cnn4c3)CC2)CC1 [Compound 261] |
| 267 nM | 975 nM | CN1CCN(C2CCN(c3cnc4c(-c5cc(C(F)(F)F)nc6ccccc56)cnn4c3)CC2)CC1 [Compound 236] |
| 458 nM | 87 nM | NC(=O)c1ccc(-c2cnn3cc(N4CCC(N5CCOCC5)CC4)cnc23)c2ccccc12 [Compound 12] |
| 104 nM | 10 nM | CN1CCN(C2CCN(c3cnc4c(-c5ccnc6cc(F)ccc56)cnn4c3)CC2)CC1 [Compound 256] |
